Results from publication PMC12951562, “SH2scan: Mapping SH2 Domain-Ligand Binding Selectivity for Inhibitors and Degraders” (Journal of Medicinal Chemistry, 2026).
Like-named read-outs stand apart in the source and are kept apart here. Non-standard residues stand in square brackets, D forms with d. Residues, ends and D or L forms follow the SMILES beside them. *: point of attachment. pY = N[C@@H](Cc1ccc(OP(=O)(O)O)cc1)C(=O)O; Caffeoyl = O=C(/C=C/c1ccc(O)c(O)c1)*

What was measured:
Assay type in all cases: binding
[1] = target: T1, STAT5B(N642H) (Homo sapiens, UniProt P51692, N642H); experiment: biochemical; details: for remaining activity at 10 µM / percent of DMSO vehicle control at 10 µM: read-out: percent of DMSO vehicle control
T1 construct: made in house; host or cells: HEK293 (transient transfection), unpurified extract
T1 sequence (P51692 1-787 N642H): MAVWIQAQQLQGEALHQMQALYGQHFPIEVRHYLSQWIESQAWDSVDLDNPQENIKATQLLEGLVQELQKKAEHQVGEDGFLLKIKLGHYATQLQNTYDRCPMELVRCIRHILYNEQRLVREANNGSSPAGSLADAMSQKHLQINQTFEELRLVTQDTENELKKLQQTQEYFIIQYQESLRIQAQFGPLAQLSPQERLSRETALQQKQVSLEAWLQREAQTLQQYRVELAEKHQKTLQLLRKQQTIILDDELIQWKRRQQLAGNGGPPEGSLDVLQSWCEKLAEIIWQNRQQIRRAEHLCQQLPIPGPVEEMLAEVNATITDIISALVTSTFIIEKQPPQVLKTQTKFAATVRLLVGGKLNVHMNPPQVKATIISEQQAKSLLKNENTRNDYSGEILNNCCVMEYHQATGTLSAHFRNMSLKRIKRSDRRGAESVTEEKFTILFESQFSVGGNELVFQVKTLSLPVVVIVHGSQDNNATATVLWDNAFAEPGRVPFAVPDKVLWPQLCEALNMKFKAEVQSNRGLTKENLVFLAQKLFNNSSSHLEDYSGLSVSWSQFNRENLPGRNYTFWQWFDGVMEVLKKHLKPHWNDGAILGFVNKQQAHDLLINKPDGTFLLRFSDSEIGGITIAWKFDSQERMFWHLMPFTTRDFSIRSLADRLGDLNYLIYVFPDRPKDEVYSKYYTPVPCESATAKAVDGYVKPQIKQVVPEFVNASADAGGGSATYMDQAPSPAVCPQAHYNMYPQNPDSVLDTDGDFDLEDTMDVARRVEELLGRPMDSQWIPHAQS

[2] = target: T2, SHIP2 (Homo sapiens, UniProt O15357); experiment: biochemical; details: for remaining activity at 10 µM: read-out: percent of DMSO vehicle control
T2 construct: made in house; host or cells: HEK293 (transient transfection), unpurified extract
T2 sequence (O15357 1-1258): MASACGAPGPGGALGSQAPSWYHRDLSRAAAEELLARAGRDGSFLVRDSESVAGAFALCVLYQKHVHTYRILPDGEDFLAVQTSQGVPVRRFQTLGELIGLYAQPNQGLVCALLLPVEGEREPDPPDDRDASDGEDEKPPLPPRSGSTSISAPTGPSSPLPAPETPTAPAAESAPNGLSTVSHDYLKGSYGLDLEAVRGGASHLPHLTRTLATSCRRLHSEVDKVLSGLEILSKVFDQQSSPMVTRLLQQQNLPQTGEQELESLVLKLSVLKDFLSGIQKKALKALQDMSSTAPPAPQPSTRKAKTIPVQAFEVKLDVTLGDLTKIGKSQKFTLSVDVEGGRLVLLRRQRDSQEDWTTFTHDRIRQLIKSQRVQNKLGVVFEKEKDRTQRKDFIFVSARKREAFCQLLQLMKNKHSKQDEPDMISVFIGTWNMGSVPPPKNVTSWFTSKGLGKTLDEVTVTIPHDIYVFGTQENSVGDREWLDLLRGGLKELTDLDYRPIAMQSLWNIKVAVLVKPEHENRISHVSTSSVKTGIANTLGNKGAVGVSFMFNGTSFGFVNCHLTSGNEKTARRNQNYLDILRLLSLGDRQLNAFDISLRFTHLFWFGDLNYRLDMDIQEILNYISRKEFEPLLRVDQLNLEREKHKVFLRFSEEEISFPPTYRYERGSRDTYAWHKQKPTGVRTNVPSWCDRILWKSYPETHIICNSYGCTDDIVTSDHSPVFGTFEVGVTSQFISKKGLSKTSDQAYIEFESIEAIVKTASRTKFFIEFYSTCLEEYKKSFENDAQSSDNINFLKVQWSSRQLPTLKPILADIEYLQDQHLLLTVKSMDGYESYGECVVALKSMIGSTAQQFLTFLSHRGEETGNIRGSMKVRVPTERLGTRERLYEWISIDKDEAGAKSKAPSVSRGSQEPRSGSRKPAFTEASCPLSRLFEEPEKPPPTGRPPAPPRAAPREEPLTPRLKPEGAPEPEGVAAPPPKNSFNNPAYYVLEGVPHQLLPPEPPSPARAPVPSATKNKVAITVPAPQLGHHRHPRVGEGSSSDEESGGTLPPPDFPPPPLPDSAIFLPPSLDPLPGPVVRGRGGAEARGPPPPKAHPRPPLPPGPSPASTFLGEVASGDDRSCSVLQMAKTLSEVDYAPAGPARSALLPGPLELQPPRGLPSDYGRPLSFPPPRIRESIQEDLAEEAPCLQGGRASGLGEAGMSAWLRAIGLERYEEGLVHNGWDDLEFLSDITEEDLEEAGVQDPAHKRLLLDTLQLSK

[3] = target: T3, SYK(SH2dom1.dom2.) (Homo sapiens, UniProt P43405); details: primary screen, 10 μM
T3 construct: the SH2 domains for these targets are expressed in tandem constructs; made in house; host or cells: HEK293 (transient transfection), unpurified extract

[4] = target: T4, STAT3(S614R)-nonphosphorylated (Homo sapiens, UniProt P40763, S614R); experiment: biochemical; details: for remaining activity at 10 µM / percent of DMSO vehicle control at 10 µM: read-out: percent of DMSO vehicle control
T4 construct: made in house; host or cells: HEK293 (transient transfection), unpurified extract, dephosphorylated by endogenous phosphatases
T4 sequence (P40763 whole entry S614R): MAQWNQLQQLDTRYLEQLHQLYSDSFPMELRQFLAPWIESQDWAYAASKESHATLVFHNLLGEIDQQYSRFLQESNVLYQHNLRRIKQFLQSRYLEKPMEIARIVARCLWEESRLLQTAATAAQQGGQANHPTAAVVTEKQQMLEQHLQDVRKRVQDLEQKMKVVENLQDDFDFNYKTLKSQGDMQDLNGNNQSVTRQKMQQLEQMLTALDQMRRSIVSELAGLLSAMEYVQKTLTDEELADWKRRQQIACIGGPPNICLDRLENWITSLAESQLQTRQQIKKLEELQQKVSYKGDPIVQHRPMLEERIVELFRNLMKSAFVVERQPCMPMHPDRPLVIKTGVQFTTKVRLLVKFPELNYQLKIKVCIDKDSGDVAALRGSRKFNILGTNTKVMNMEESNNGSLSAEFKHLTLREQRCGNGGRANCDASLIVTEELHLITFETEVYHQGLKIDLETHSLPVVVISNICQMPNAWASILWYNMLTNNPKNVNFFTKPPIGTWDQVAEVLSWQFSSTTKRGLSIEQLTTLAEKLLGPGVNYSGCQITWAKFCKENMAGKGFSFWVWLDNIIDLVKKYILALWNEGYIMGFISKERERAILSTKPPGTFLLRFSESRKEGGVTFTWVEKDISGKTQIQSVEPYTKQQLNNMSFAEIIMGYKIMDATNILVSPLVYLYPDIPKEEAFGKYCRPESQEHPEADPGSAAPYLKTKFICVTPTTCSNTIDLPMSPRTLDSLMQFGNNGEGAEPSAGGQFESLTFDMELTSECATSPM

O=C(CCl)Nc1cccc(CNC(=O)[C@H](Cc2ccc(OP(=O)(O)O)cc2)NC(=O)Cc2ccc(F)cc2)c1 [MN551]
remaining activity at 10 µM ([1]; primary screen, 10 μM): 76.9%
KD ([2]; dose-response): No Hit
remaining activity at 10 µM ([2]; primary screen, 10 μM): 31.7%
percent of DMSO vehicle control [3]: 61.9±4.0%
remaining activity at 10 µM ([4]; primary screen, 10 μM): 95.7 ± 8.1%

CC[C@H](C)[C@H](NC(=O)[C@H](CCC(=O)O)NC(=O)[C@H](CCC(=O)O)NC(=O)[C@H](Cc1ccc(OP(=O)(O)O)cc1)NC(=O)/C=C/c1ccc(O)c(O)c1)C(=O)N[C@@H](CCC(=O)O)C(=O)O [Caffeic acid-pYEEIE] (Caffeoyl-[pY]EEIE-OH)
Kd [1]: 2400 ± 2300 nM
percent of DMSO vehicle control at 10 µM [1]: 9.4 ± 1%
Kd [2]: 230 ± 120 nM
remaining activity at 10 µM [2]: 0.2%
percent of DMSO vehicle control [3]: 72.6±6.4%
percent of DMSO vehicle control at 10 µM [4]: 81.4 ± 6.7%

C/C(=C\C(=O)N[C@H](C(=O)N1CCC[C@H]1C(=O)N(c1ccccc1)c1ccc(I)cc1)C(C)(C)C)c1ccc(OP(=O)(O)O)cc1 [STAT6-IN-1]
Kd ([1]; dose-response, read-out: KD): 5.6 ± 2.1 nM
remaining activity at 10 µM ([1]; primary screen, 10 μM): 0%
Kd ([2]; dose-response, read-out: KD): 2030 ± 420 nM
remaining activity at 10 µM ([2]; primary screen, 10 μM): 6.9 ± 3.9%
percent of DMSO vehicle control [3]: 61.2±11.0%
Kd ([4]; dose-response, read-out: KD): 88 ± 31 nM
remaining activity at 10 µM ([4]; primary screen, 10 μM): 0%

O=C(COc1ccc2cc(C(=O)Nc3ccccc3)ccc2c1)NCc1ccc(OP(=O)(O)O)c(OP(=O)(O)O)c1 [Stafib-1]
remaining activity at 10 µM ([1]; primary screen, 10 μM): 12.5 ± 13.5%
percent of DMSO vehicle control [3]: 66.1±28.1%
remaining activity at 10 µM ([4]; primary screen, 10 μM): 87.4 ± 4.6%

CC[C@H](C)[C@H](NC(=O)[C@H](CCC(=O)O)NC(=O)[C@H](CCC(=O)O)NC(=O)[C@H](Cc1ccc(OP(=O)(O)O)cc1)NC(C)=O)C(=O)N[C@@H](CCC(=O)O)C(N)=O [Ac-pYEEIE-NH2] (Ac-[pY]EEIE-NH2)
percent of DMSO vehicle control ([1]; primary screen, 10 μM): 115.5%
percent of DMSO vehicle control ([2]; primary screen, 10 μM): 62.5±0.8%
percent of DMSO vehicle control [3]: 126.1%
percent of DMSO vehicle control ([4]; primary screen, 10 μM): 96.3±8.9%

NC(=O)CC[C@H](NC(=O)[C@@H]1CC[C@@H]2CCN(C(=O)CCCCCC#Cc3cccc4c3CN(C3CCC(=O)NC3=O)C4=O)C[C@H](NC(=O)c3cc4cc(C(F)(F)P(=O)(O)O)ccc4[nH]3)C(=O)N21)C(=O)NC(c1ccccc1)c1ccccc1 (stereo partly drawn) [SD-36]
Kd ([1]; dose-response): 2400 ± 740 nM
percent of DMSO vehicle control at 10 µM [1]: 3.2 ± 0.8%
remaining activity at 10 µM [2]: 67.3 ± 2.6%
percent of DMSO vehicle control [3]: 104.6%
Kd ([4]; dose-response): 9.7 ± 4.1 nM
percent of DMSO vehicle control at 10 µM [4]: 1.6%

CC(C)(C)[C@H](NC(=O)/C=C/c1ccc(OP(=O)(O)O)cc1)C(=O)N1CCC[C@H]1C(=O)N(c1ccccc1)c1ccc(I)cc1 [STAT6-IN-3]
Kd ([1]; dose-response, read-out: KD): 36 ± 27 nM
remaining activity at 10 µM ([1]; primary screen, 10 μM): 1.3 ± 7.7%
KD ([2]; dose-response): No Hit
remaining activity at 10 µM ([2]; primary screen, 10 μM): 36.5 ± 29.6%
percent of DMSO vehicle control [3]: 65.2±43.9%
Kd ([4]; dose-response, read-out: KD): 140 ± 71 nM
remaining activity at 10 µM ([4]; primary screen, 10 μM): 0.1 ± 0.1%

CC(=O)N[C@@H](Cc1ccc(CP(=O)(O)O)cc1)C(=O)NC1(C(=O)N[C@@H](CC(N)=O)C(=O)NCCCc2c(O)ccc3ccccc23)CCCCC1 [CGP78850]
percent of DMSO vehicle control at 10 µM [1]: 107 ± 9.8%
remaining activity at 10 µM [2]: 106 ± 9.3%
percent of DMSO vehicle control [3]: 85.1±0.1%
percent of DMSO vehicle control at 10 µM [4]: 82.4 ± 3.2%

CC(=O)N1CC[C@H]2CC[C@@H](C(=O)N[C@@H](CCC(N)=O)C(=O)NC(c3ccccc3)c3ccccc3)N2C(=O)[C@@H](NC(=O)c2cc3cc(C(F)(F)P(=O)(O)O)ccc3[nH]2)C1 [SI-109]
Kd [1]: 19000 ± 8500 nM
percent of DMSO vehicle control at 10 µM [1]: 123%
remaining activity at 10 µM [2]: 121%
percent of DMSO vehicle control [3]: 121.8%
Kd [4]: 5 ± 0.56 nM
percent of DMSO vehicle control at 10 µM [4]: 0.1%
